Assays:
[1] = test system: Mtb-R-TBA161-C (aspS F526L); type: cell-based, Mycobacterium tuberculosis
[2] = test system: Mtb carrying pMS2-aspSMmar or pMS2-aspSMmarR168G; type: cell-based, Mycobacterium tuberculosis

O=c1c2cc(Cl)cc(Cl)c2oc2nc3n(c(=O)c12)CCCS3 [TBA161-C, 9,11-dichloro-3,4-dihydro-chromeno[2′,3′:4,5]pyrimido[2,1-b][1,3]thiazine-6,7-dione]
MIC90, TBA161-C-resistant Mtb strains [1]: exceeding 20 µM
MIC90 of resistant Mtb strains compared to the parental strain [1]: more than tenfold higher
Increase of MIC90, Mtb overexpressing wild-type aspS vs wild-type strain [2]: fivefold
MIC90, Mtb overexpressing mutated aspS (aspSMmarR168G) [2]: > 80 µM
